Test results: patent US20040053355A1, “Modular approach to on-line synthesis, drug discovery and biochemical transformations using immobilized enzyme reactors” (priority 2000, published 2004)

Columns and labels:
[1] = molecular target: T1, dopamine beta-hydroxylase immobilized onto IAM (DBH-IAM) (Bos taurus, UniProt P15101); experiment: DBH immobilized onto IAM stationary phase (DBH-IAM), batch assay; assay type: biochemical, bovine
T1 construct: purchased
T1 sequence (P15101 1-610): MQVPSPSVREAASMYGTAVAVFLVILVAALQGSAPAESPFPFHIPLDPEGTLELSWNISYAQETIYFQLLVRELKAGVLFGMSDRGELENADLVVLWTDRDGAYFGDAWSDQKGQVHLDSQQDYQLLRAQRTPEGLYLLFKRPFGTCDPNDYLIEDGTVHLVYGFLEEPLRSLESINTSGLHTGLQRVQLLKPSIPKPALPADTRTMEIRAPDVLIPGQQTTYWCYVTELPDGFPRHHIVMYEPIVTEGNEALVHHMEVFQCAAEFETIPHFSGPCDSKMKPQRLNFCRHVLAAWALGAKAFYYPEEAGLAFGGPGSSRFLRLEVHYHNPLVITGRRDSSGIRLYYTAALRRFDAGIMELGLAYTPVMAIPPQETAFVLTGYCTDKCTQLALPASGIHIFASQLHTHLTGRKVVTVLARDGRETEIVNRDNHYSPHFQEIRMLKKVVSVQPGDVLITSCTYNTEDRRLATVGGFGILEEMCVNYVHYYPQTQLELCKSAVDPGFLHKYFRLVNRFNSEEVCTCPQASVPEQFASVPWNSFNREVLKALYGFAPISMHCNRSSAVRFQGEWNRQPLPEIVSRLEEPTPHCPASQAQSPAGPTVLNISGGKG
Method: (§1) The enzyme was assayed as follows: four different solutions were prepared A, B, C and D (final concentration). (A) 500 μL of enzyme solution (10 μg/ml); B: 275 μL sodium acetate buffer (10 mM, pH 5.5), 50 μL cupric sulphate (5 μM); C: 25 μL catalase (5 μg/ml), 50 μL ascorbic acid (10 mM), 50 μl sodium fumarate (10 mM); D: 50 μl substrate (5 mM). Solution B was added to solution A, the resulting solution was mixed for 1 min. Solution C was added and the resulting solution was mixed for an additional minute. The reaction was started with the addition of the substrate (D), after which the reaction solution was incubated for 5 min at 37° C. in a shaking bath. The reaction was stopped by the addition of 100 μl of cold hexane, the resulting mixture was centrifuged at 3000×g for 10 min and the supernatant transferred to the pre-conditioned phenylboronic acid cartridges in order to extract the product formed and the remaining substrate. Extracted samples were directly injected onto the HPLC under either chiral or achiral conditions.
The packing material was washed three times with sodium acetate buffer (0.1M, pH 5.5). The washing was carried out by adding 1 ml of buffer to the packing material, the suspension was vortexed for 1 min, centrifuged at 3000×g for 10 min and the supernatant decanted. The enzyme solution (8-10 μg in 1 ml sodium acetate buffer) was added to the packing material, the mixture was vortexed for 15 min and then placed in a shaking bath for 2 h at ambient temperature. At the end of 2 h, the suspension was centrifuged, the supernatant decanted and the packing material washed three additional times with buffer. The amount of enzyme immobilized on the packing material was determined by measuring the amount of residual enzyme in the supernatant using the BioRad Protein Assay. The difference in the absorbance reading before immobilization and the total of absorbances after immobilization determined the amount of enzyme bound on the packing material.

[2] = molecular target: T2, DBH-Glut-P IMER (immobilized dopamine beta-hydroxylase) (Bos taurus, UniProt P15101); experiment: On-line DBH-Glut-P immobilized enzyme reactor (DBH-Glut-P IMER) HPLC system; assay type: biochemical, bovine
T2 construct: purchased
T2 sequence (P15101 1-610): T1 sequence (P15101 1-610)
Excerpt: (§2) DBH immobilized on the IAM or Glut-P stationary phase was packed into a 1 cm×10 mm guard (Regis Technologies). The guard was placed in a holder and the resulting column connected to a chromatographic system. THE DBH-IAM-IMER and the DBH-Glut-P-IMER was washed with sodium acetate buffer [0.1M, pH 5.5] and sodium acetate buffer [0.1M, pH 6.0], respectively. The eluent from both IMERs was collected in order to determine if any of the DBH was being washed off the columns. The Biorad assay was utilized to measure the amount of non-immobilized enzyme. When the columns were not in use they were washed with sodium acetate buffer at the respective pHs and stored at 4° C.
Pumps 2 and 3 on system 2 and 3 were stopped. 100 μl of a substrate/cofactor mixture is loaded into the injector (i) and the valve is switched to the inject position at the same time the witching valve (SV) is switched such that substrate/product are eluted from the DBH-IMERs and concentrated onto the PBA column of system 2.The second pump was started and mobile phase A was pumped through the PBA column at a flow rate of 0.1 ml/min for 30 sec in order to elute, ascorbic acid and any other by-products produced from the reaction. The pump was then switched to mobile phase B with a flow rate of 0.1 ml/min for 2 min and simultaneously SV1 was switched such that unreacted substrate and product formed were concentrated on the analytical columns of System 3. When the specific contact time elapses the SV2 is switched back to the original position and the pump 3 is started.
(§3) The enzymatic activity on the DBH-Glut-P was determined by quantification of the amount of product formed with a given substrate. The temperature of the IMER unless otherwise stated was kept at 37° C. with a column heater. Stock solutions of tyramine were prepared in water. […] The kinetic parameters were determined using standard Michaelis-Menten approach. […] The rates of reaction (Vmax) were calculated using […]mol/mg/min. Results are expressed as mean±standard error of the mean (SEM). […]

[3] = molecular target: T3, dopamine beta-hydroxylase (DBH), non-immobilized (Bos taurus, UniProt P15101); experiment: Non-immobilized DBH activity assay, batch incubation with HPLC-fluorescence analysis; assay type: biochemical, bovine
T3 construct: purchased
T3 sequence (P15101 1-610): T1 sequence (P15101 1-610)
Method: The solutes were quantitated using fluorescence detection with excitation at λ=265 nm and no cut-off filter for emission. A flow rate of 1 ml/min and ambient temperature were used throughout the study.
Enzymatic conversions utilizing DBH require cupric sulphate, catalase, ascorbic acid and sodium fumarate. An off-line extraction method utilizing solid phase extraction cartridges containing a phenylboronic acid stationary phase was developed. The procedure consisted of the following: 1-ml cartridges were conditioned with 2 ml of methanol followed by 2 ml of sodium phosphate buffer (0.1M, pH 8.4). One ml of reaction mixture was added, the cartridge was then washed with 1 ml sodium phosphate buffer (0.1M, pH 8.4) and the substrate and product were eluted using 1 ml of 0.1N HCl. The eluate was directly injected onto the HPLC system.
as §1

[4] = substrate: COc1cc(C(O)CN)ccc1O; experiment: Non-immobilized PNMT activity assay, batch incubation with HPLC-fluorescence analysis; assay type: biochemical, bovine; conditions: other: non-immobilized PNMT; 37.0 °C
Method: A mobile phase consisting of potassium phosphate buffer (50 mM) adjusted to pH 2.0 with trifluoroacetic acid was utilized to achieve the desired chromatographic separation of the products from the substrates. The solutes were quantitated using fluorescence detection with excitation at λ=266 nm and emission at λ=380 nm. A flow rate of 0.7 ml/min and ambient temperature were used throughout the study.
(§4) The activity of phenylethanolamine N-methyltransferase was assayed as follows: [final concentration] […] The reaction was started by addition of the 50 μL substrate [1 mM]. The reaction medium was incubated for 10 min at 37° C. in a shaking bath. The resulting solution was centrifuged at 3000×g and the supernatant were directly injected onto the HPLC under the above mentioned conditions.

[5] = substrate: COc1cc(C(O)CN)ccc1O; experiment: On-line PNMT immobilized enzyme reactor (PNMT-IMER) HPLC system; assay type: biochemical, bovine; conditions: other: PNMT-IMER, 0.2 ml/min, contact time 20 min, 37° C., n = 2, pH 8.3
Excerpt: PNMT immobilized on the Glut-P stationary phase was packed into a lcm×10 mm guard (Regis Technologies). The guard was put into a holder and the column was placed onto the chromatographic system. The PNMT-IMER was washed with phosphate buffer [0.1M, pH 8.3]. The eluent was collected in order to determine if any of the enzyme was being washed off the column. The Biorad assay was utilized to measure the amount of non-immobilized enzyme. When the column was not in use it was washed with phosphate buffer [0.1M, pH 8.3] and stored at 4° C.
The pump on system 2 is stopped. 100 μl of a substrate/cofactor mixture is loaded into the injector (i) and the value is switched to the inject position at the same time the switching valve (SV) is switched such that the substrate/product are eluted from the PNMT-IMER and concentrated onto the analytical columns of System 2 for the specified contact time. […]
The enzymatic activity on the PNMT-IMER was determined by quantification of the amount of product formed with a given substrate. […]
Enzymatic activity was examined carrying out injections of a series of substrate/cofactor mixtures. […] The kinetic parameters were determined by drawing Lineweaver-Burke plots utilizing Microsoft Excel. Results are expressed as mean±standard error of the mean (SEM). […]

[6] = substrate: COc1cc(C(O)CN)ccc1O; experiment: PNMT immobilized on Glut-P stationary phase (PNMT-SP), batch assay; assay type: biochemical, bovine; conditions: other: PNMT-SP, Table 5; pH 8.3; 37.0 °C
Method: as §4

[7] = substrate: NCCc1ccc(O)c(O)c1; experiment: purified protein, by the assay type; conditions: 37.0 °C
[8] = substrate: O=C1O[C@H]([C@@H](O)CO)C(O)=C1O; experiment: Non-immobilized DBH activity assay, batch incubation with HPLC-fluorescence analysis; assay type: biochemical, bovine; conditions: other: non-immobilized DBH; Lineweaver-Burke; 37.0 °C
Method: (§5) Enzymatic conversions utilizing DBH require cupric sulphate, catalase, ascorbic acid and sodium fumarate. […] The procedure consisted of the following: 1-ml cartridges were conditioned with 2 ml of methanol followed by 2 ml of sodium phosphate buffer (0.1M, pH 8.4). One ml of reaction mixture was added, the cartridge was then washed with 1 ml sodium phosphate buffer (0.1M, pH 8.4) and the substrate and product were eluted using 1 ml of 0.1N HCl. The eluate was directly injected onto the HPLC system.

[9] = substrate: NCCc1ccc(O)cc1; experiment: as above; assay type: biochemical, bovine; conditions: other: non-immobilized DBH; Lineweaver-Burke; 37.0 °C
Method: as §5

[10] = substrate: NCCc1ccc(O)cc1; experiment: DBH immobilized onto IAM stationary phase (DBH-IAM), batch assay; assay type: biochemical, bovine; conditions: other: DBH-IAM; pH 5.5; 37.0 °C
[11] = substrate: NCCc1ccc(O)cc1; experiment: On-line DBH-Glut-P immobilized enzyme reactor (DBH-Glut-P IMER) HPLC system; assay type: biochemical, bovine; conditions: other: DBH-IMER (DBH-Glut-P IMER), 0.3 ml/min, contact time 10 min, 37° C.
Excerpt: as §2
Pumps 2 and 3 on system 2 and 3 were stopped. […]
as §3, with “substrate.” for “substrate. The temperature of the IMER unless otherwise stated was kept at 37° C. with a column heater. Stock solutions of tyramine were prepared in water.”

[12] = substrate: NCCc1ccc(O)cc1; experiment: DBH immobilized onto Glut-P stationary phase (DBH-Glut-P, DBH-Glut-P-SP), batch assay; assay type: biochemical, bovine; conditions: other: DBH-Glut-P (DBH-Glut-P-SP); 37.0 °C
Method: The enzyme was assayed as follows: four different solutions were prepared A, B, C and D (final concentration). (A) 500 μL of enzyme solution (10 μg/ml); B: 275 μL sodium acetate buffer (10 mM, pH 5.5), 50 μL cupric sulphate (5 μM); C: 25 μL catalase (5 μg/ml), 50 μL ascorbic acid (10 mM), 50 μl sodium fumarate (10 mM); D: 50 μl substrate (5 mM). Solution B was added to solution A, the resulting solution was mixed for 1 min. Solution C was added and the resulting solution was mixed for an additional minute. The reaction was started with the addition of the substrate (D), after which the reaction solution was incubated for 5 min at 37° C. in a shaking bath. […]
The packing material was washed three times with sodium acetate buffer (0.1M, pH 6). […] The enzyme solution (8-10 μg in 1 ml sodium acetate buffer] was added to the packing material, the mixture was vortexed for 2 min and then placed on a shaker/rotator for 6 h at ambient temperature. At the end of 6 h, the suspension was centrifuged, the supernatant decanted and the packing material washed three additional times with the buffer. The amount of residual enzyme was determined utilizing the same procedure as that carried out for the enzyme immobilized onto IAM.

[13] = read-out: % Control Activity DBH-IAM
[14] = read-out: % Control Activity DBH

Molecule: CCCCc1ccc(C(=O)O)nc1 [Fusaric acid, fusaric acid]
- inhibition of DBH mediated formation of norepinephrine from dopamine ([1]; immobilized enzyme (DBH-IAM), concentrations as low as 10^−6M): approximately 50%
- remaining activity at 0.0016 µM [1, 13]: 91%
- remaining activity at 0.0032 µM [1, 13]: 73%
- remaining activity at 0.0063 µM [1, 13]: 56%
- remaining activity at 0.0125 µM [1, 13]: 51%
- remaining activity at 0.025 µM [1, 13]: 46%
- remaining activity at 0.05 µM [1, 13]: 20%
- remaining activity at 0.1 µM [1, 13]: 0%
- remaining activity at 0.2 µM [1, 13]: 0%
- IC50 [2]: 5.6 nM
- IC50 [3]: 7.5 nM
- inhibition of DBH mediated formation of norepinephrine from dopamine ([3]; non-immobilized enzyme, concentrations as low as 10^−6M): approximately 50%
- remaining activity at 0.0016 µM [3, 14]: 99%
- remaining activity at 0.0032 µM [3, 14]: 84%
- remaining activity at 0.0063 µM [3, 14]: 40%
- remaining activity at 0.0125 µM [3, 14]: 21%
- remaining activity at 0.025 µM [3, 14]: 19%
- remaining activity at 0.05 µM [3, 14]: 17%
- remaining activity at 0.1 µM [3, 14]: 0%
- remaining activity at 0.2 µM [3, 14]: 0%

B1: phenylethanolamine N-methyltransferase (PNMT), non-immobilized (Bos taurus) (protein)
chain: MSGTDRSQAAGAVPDSDPGLAAVSSAYQRFEPRAYLRNNYAPPRGDLSCPDGVGPWKLRCLAQTFATGEVSGRTLIDIGSGPTIYQLLSACAHFEDITMTDFLEVNRQELRLWLREEPGAFDWSVYSQHVCLIEGKGESWQEKECQLRARVKRILPIDVHRPQPLGAGGLAPLPADALVSAFCLEAVSPDLASFQRALDHITTLLRPGGHLLLIGALEESWYLAGEARLAVVPVREEEVREALVRTATRCGICARTPMPAHLQTGVDDVKGIFFTRAQKKVGV
- Km [4]: 109 µM

B2: PNMT-IMER (immobilized phenylethanolamine N-methyltransferase) (Bos taurus) (protein)
chain: B1 chain
- Km [5]: 384 µM

B3: PNMT-Glut-P stationary phase (PNMT-SP) (Bos taurus) (protein)
chain: B1 chain
- Km [6]: 152 µM

B4: dopamine beta-hydroxylase (DBH), non-immobilized (Bos taurus) (protein)
chain: T1 sequence (P15101 1-610)
notes: purchased
- Km ([7]; other: non-immobilized DBH, Lineweaver-Burke): 5030 µM
- Km [8]: 620 µM
- Vmax [8]: 0.185 µmol/mg/min
- Km [9]: 2850 µM

B5: dopamine beta-hydroxylase immobilized onto IAM (DBH-IAM) (Bos taurus) (protein)
chain: T1 sequence (P15101 1-610)
notes: purchased
- Km ([7]; other: DBH-IAM, pH 5.5): 2530 µM
- Vmax ([7]; other: DBH-IAM, pH 5.5): 0.160 µmol/mg/min
- Km [10]: 1640 µM
- Vmax [10]: 0.101 µmol/mg/min

B6: DBH-Glut-P IMER (immobilized dopamine beta-hydroxylase) (Bos taurus) (protein)
chain: T1 sequence (P15101 1-610)
notes: purchased
- Km [11]: 2760 µM
- Vmax [11]: 0.079 µmol/mg/min

B7: dopamine beta-hydroxylase immobilized onto Glut-P (DBH-Glut-P) (Bos taurus) (protein)
chain: T1 sequence (P15101 1-610)
notes: purchased
- Km [12]: 1040 µM
- Vmax [12]: 0.112 µmol/mg/min
